The target of one test is CDK2 (UniProt P24941). The test can be described thus: Enzyme Assay.
The next test concerns the target EGFR (UniProt P00533). The conditions noted are these: concentration not given here.

IC50 and inhibition data for 27 compounds are collected here from the Kinase Knowledgebase extract (Sharma et al. 2016).

Sequence of EGFR (P00533 whole entry, looked up): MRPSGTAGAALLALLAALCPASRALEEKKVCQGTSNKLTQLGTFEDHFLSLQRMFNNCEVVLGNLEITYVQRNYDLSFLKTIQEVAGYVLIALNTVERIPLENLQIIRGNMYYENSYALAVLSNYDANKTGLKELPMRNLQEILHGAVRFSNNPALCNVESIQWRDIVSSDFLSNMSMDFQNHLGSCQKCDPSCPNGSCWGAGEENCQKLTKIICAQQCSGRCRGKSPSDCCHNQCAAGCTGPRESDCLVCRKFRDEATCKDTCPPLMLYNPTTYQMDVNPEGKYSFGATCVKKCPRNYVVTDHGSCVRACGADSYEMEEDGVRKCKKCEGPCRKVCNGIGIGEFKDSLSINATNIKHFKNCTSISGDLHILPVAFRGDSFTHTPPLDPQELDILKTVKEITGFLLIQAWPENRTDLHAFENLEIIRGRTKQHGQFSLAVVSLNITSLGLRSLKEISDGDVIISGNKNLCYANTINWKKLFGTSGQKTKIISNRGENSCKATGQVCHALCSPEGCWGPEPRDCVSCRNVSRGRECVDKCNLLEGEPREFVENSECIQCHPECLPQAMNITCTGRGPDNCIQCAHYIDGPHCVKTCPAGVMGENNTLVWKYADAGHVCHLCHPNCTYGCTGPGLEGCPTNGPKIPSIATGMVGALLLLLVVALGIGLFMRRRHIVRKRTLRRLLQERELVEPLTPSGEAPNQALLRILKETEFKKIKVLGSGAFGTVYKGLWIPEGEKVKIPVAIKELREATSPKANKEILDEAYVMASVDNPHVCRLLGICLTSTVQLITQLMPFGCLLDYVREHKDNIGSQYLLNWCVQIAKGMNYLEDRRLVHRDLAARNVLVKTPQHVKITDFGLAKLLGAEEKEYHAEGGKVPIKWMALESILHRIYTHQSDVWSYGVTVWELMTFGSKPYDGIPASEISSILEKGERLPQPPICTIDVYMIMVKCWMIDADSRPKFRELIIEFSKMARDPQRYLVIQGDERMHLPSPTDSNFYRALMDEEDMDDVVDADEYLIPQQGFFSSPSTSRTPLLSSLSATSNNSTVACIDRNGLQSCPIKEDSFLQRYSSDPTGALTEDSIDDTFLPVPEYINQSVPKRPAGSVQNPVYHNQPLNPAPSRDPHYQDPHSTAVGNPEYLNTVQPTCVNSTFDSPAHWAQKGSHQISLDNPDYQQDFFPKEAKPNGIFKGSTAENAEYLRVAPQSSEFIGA

What is called IC50 is the point on the concentration scale where inhibition reaches its midpoint. A lower IC50 goes with higher potency. As a reminder, the inhibition is how much of the control response was suppressed. With `COc1ccccc1-c1cc(Nc2ccc(NC(C)=O)cc2)ncn1`, the half-maximal inhibitory concentration (IC50) at CDK2 was in the range of 0.001 to 1 µM. Moreover, on EGFR, the inhibition lay within 50 to 80%.

At CDK2, `NCCCOc1ccccc1-c1cc(Nc2ccc(NC(=O)c3ccc(N)cc3)cc2)ncn1` came in with an IC50 of 1 to 10 µM. Further, the inhibition on EGFR was greater than 80%.

Turning to `COc1ccccc1-c1cc(Nc2ccc(NC(=O)[C@H]3CCCCN3)cc2)ncn1`, the IC50 at CDK2 was in the range of 1 to 10 µM. The compound further gave an inhibition on EGFR greater than 80%.

Compound `CCCS(=O)(=O)Nc1cc(Nc2cc(-c3cccc(N)c3)ncn2)ccc1C` had an IC50 against CDK2 of 0.001 to 1 µM. Also, the inhibition on EGFR was greater than 80%.

For `CCN(CC)CCC(=O)Nc1ccc(Nc2cc(-c3ccccc3OC)ncn2)cc1`, the IC50 at CDK2 lay in the range of 1 to 10 µM. For the same compound, the inhibition at EGFR was greater than 80%.

As for `COc1ccccc1-c1cc(Nc2ccc(C(=O)NC3CCCNC3)cc2)ncn1` (stereo not drawn), the IC50 against CDK2 lay within 0.001 to 1 µM. The inhibition at EGFR was greater than 80%.

On to `COc1ccccc1-c1cc(Nc2ccc(NC(=O)[C@@H]3Cc4ccccc4CN3)cc2)ncn1`, for which the IC50 on CDK2 is 1 to 10 µM. In addition, the inhibition at EGFR was greater than 80%.

On CDK2, `Cc1ccc(Nc2cc(-c3cccc(N)c3)ncn2)cc1NS(C)(=O)=O` showed an IC50 of 0.001 to 1 µM. At EGFR, this compound returned an inhibition greater than 80%.

Regarding `COc1ccccc1-c1cc(Nc2ccc(NS(C)(=O)=O)cc2)ncn1`, the half-inhibitory concentration (IC50) on CDK2 was in the range of 0.001 to 1 µM. At EGFR, this compound displayed an inhibition of 50 to 80%.

`COc1ccccc1-c1cc(Nc2ccc(NC(=O)[C@@H]3CCCCN3)cc2)ncn1`: the IC50 at CDK2 lay in the range of 1 to 10 µM. The same compound yielded an inhibition on EGFR greater than 80%.

Compound `COc1ccccc1-c1cc(Nc2ccc(NC(=O)C3(N)CCCCC3)cc2)ncn1` registered an IC50 on CDK2 of 1 to 10 µM. Moreover, at EGFR, the inhibition was greater than 80%.

For the compound `CN[C@H](C(=O)Nc1ccc(Nc2cc(-c3ccccc3OC)ncn2)cc1)c1ccccc1`, the concentration for half-maximal inhibition (IC50) against CDK2 was 1 to 10 µM. Also, the inhibition against EGFR was greater than 80%.

Regarding `Nc1ccc(C(=O)Nc2ccc(Nc3cc(-c4ccccc4OCc4ccccc4)ncn3)cc2)cc1`, the half-maximal inhibitory concentration (IC50) at CDK2 lay within 1 to 10 µM. On EGFR, the inhibition is 30 to 50%.

Turning to `NC(=O)c1ccc(Nc2cc(-c3ccccc3OCc3ccccc3)ncn2)cc1`, the IC50 on CDK2 was in the range of 0.001 to 1 µM. The inhibition against EGFR is 50 to 80%.

Turning to `COc1ccccc1-c1cc(Nc2ccc(NC(=O)c3ccc(N4CCN(C)CC4)cc3)cc2)ncn1`, on CDK2, the IC50 fell in the range of 1 to 10 µM. On EGFR, this compound had an inhibition of 50 to 80%.

Take `COc1ccccc1-c1cc(Nc2ccc(NC(=O)CCN)cc2)ncn1`: the IC50 against CDK2 was in the range of 1 to 10 µM. In addition, the inhibition on EGFR was greater than 80%.

Consider `COc1ccccc1-c1cc(Nc2ccc(N)cc2)ncn1`, for which the IC50 against CDK2 fell in the range of 0.001 to 1 µM. In addition, the inhibition on EGFR is greater than 80%.

Regarding `CNC(C)(C)C(=O)Nc1ccc(Nc2cc(-c3ccccc3OC)ncn2)cc1`, on CDK2, the IC50 lay in the range of 1 to 10 µM. On EGFR, this compound displayed an inhibition greater than 80%.

The compound `COc1ccccc1-c1cc(Nc2ccc(NC(=O)Cc3ccccc3)cc2)ncn1` came in with an IC50 against CDK2 of 1 to 10 µM. For the same compound, the inhibition on EGFR lay within 30 to 50%.

On to `COc1ccccc1-c1cc(Nc2ccc(NC(=O)CC3CCCCN3)cc2)ncn1` (stereo not drawn), for which, on CDK2, the IC50 was in the range of 1 to 10 µM. On EGFR, this compound yielded an inhibition greater than 80%.

As for `COc1ccccc1-c1cc(Nc2ccc(NC(=O)c3cn(C)cn3)cc2)ncn1`, the IC50 on CDK2 fell in the range of 1 to 10 µM. The compound further yielded an inhibition against EGFR of 50 to 80%.

`COc1ccccc1-c1cc(Nc2ccc(NC(=O)C3(N)CCCC3)cc2)ncn1`: on CDK2, the IC50 fell in the range of 1 to 10 µM. The compound also gave an inhibition against EGFR greater than 80%.

Compound `COc1ccccc1-c1cc(Nc2ccc(NC(=O)[C@H]3CCCN3)cc2)ncn1` came in with an IC50 on CDK2 of 1 to 10 µM. The same compound returned an inhibition against EGFR greater than 80%.

Take `COc1ccccc1-c1cc(Nc2ccc(NC(=O)C3CCCN(C)C3)cc2)ncn1` (stereo not drawn): the IC50 against CDK2 was in the range of 1 to 10 µM. The inhibition at EGFR is greater than 80%.

Compound `CC(C)Oc1ccccc1-c1cc(Nc2ccc(NC(=O)c3ccc(N)cc3)cc2)ncn1` had a 50% inhibitory concentration (IC50) at CDK2 of 0.001 to 1 µM. Further, the inhibition against EGFR was 50 to 80%.

`Cc1ccc(Nc2cc(-c3cccc(N)c3)ncn2)cc1NS(=O)(=O)c1ccccc1` registered an IC50 at CDK2 of 1 to 10 µM. This compound displayed an inhibition against EGFR of 50 to 80%.

As to `CS(=O)(=O)Nc1cccc(-c2cc(Nc3ccc(C(=O)N[C@@H]4CCCC[C@H]4N)cc3)ncn2)c1.CS(=O)(=O)Nc1cccc(-c2cc(Nc3ccc(C(=O)N[C@H]4CCCC[C@@H]4N)cc3)ncn2)c1`, the half-maximal inhibitory concentration (IC50) on CDK2 lay in the range of 1 to 10 µM.
